Assay results from patent publication US9708287B2, “Chiral compounds, compositions, products and methods employing same” (Cayman Chemical Company Incorporated, priority 2012, dated 2017).

Tested on: human skin
Assay: topical administration to a human in need of beautifying
Format: in vivo
Settings: twice daily treatments, after several weeks
Description: The chiral, non-racemic analog, (+) deoxyArbutin ((+)-dA), prepared as described in Example I is administered topically to a human in need of beautifying.

Q: For Oc1ccc(OC2CCCCO2)cc1 (racemic) [(+) deoxyArbutin, 4-(tetrahydro-2H-pyran-2-yloxy)phenol], which “health and vitality of the treated areas of the skin” value is on record?
A: increased health and vitality

Q: And the “pigmentation of the treated areas of the skin” value?
A: decreased pigmentation
